We go through ten compounds from ChEMBL document CHEMBL1201862, “PubChem BioAssay data set” (2004).

Among the test systems are UACC-257; OVCAR-5; SK-MEL-5; A498; SN12C; MDA-N; A549; SF-268; MOLT-4; HL-60; MCF7; IGROV-1; OVCAR-8; LOX IMVI; NCI-H226; CCRF-CEM; RXF 393; U-251; Hs-578T; NCI-H23.
Common to all, as to test: DTP human tumour cell line panel, 48 h

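Following 48 hours of exposure in 96-well plates, responses at five concentrations were used to interpolate endpoints linearly. GI50: concentration for 50% inhibition of growth.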 The source made the active and inactive calls. Rule as the data show it: active = GI50 up to about 1.1 µM and inactive = higher.

As to `CCN(CC)CCC(=O)/C=C/c1ccccc1`, the GI50 (in general, the concentration giving 50% growth inhibition) in the assay with UACC-257 is 16.2 µM (inactive); in the assay with OVCAR-5 it was 17.5 µM (inactive); in the assay on SK-MEL-5, 18.4 µM (inactive); with A498, 17.8 µM (inactive); with SN12C, 15.5 µM (inactive); in the assay with MDA-N it was 13.3 µM (inactive). Moreover, the GI50 in the assay with A549 is 19 µM (inactive); in the assay with SF-268 it was 10.3 µM (inactive); in the assay with MOLT-4 it was 6.3 µM (inactive); with HL-60 it was 2.55 µM (inactive); in the assay on MCF7, 2.48 µM (inactive); in the assay with IGROV-1, 17.5 µM (inactive). Further, the GI50 with OVCAR-8 was 19 µM (inactive); with LOX IMVI, 2.54 µM (inactive); with NCI-H226 it was 19.4 µM (inactive); in the assay with CCRF-CEM, 3.57 µM (inactive); in the assay with RXF 393 it was 9.25 µM (inactive); in the assay on U-251 it was 12 µM (inactive). Moreover, the GI50 in the assay on Hs-578T is 14 µM (inactive); in the assay on NCI-H23, 18.2 µM (inactive).

As to `O=C(/C=C/c1ccccc1)CCN1CCCCC1`, the GI50 was 37.4 µM (inactive) in the assay on UACC-257; > 100 µM (inactive) with OVCAR-5; 32.8 µM (inactive) with SK-MEL-5; 39.2 µM (inactive) in the assay on A498; 20.3 µM (inactive) with SN12C; 24.9 µM (inactive) in the assay with MDA-N. Further, the GI50 is 54.1 µM (inactive) in the assay with A549; 42.5 µM (inactive) in the assay with SF-268; 24.1 µM (inactive) with MOLT-4; 29.4 µM (inactive) in the assay with HL-60; 27.4 µM (inactive) with MCF7; 43.1 µM (inactive) with IGROV-1. Moreover, the GI50 was 18.5 µM (inactive) with OVCAR-8; 17.5 µM (inactive) in the assay on LOX IMVI; > 100 µM (inactive) in the assay on NCI-H226; 39.4 µM (inactive) with CCRF-CEM; 24.2 µM (inactive) in the assay with RXF 393; 23.6 µM (inactive) in the assay with U-251. Further, the figures for the GI50 in the assay on Hs-578T and in the assay with NCI-H23 were 30.9 µM (inactive) and 24.8 µM (inactive), respectively.

On to `COc1cc2cc(C(=O)N3C[C@H](CCl)c4c3cc(N)c3ccccc43)[nH]c2c(OC)c1OC`, for which the GI50 was 1.6 µM (inactive) with UACC-257; 0.0906 µM (active) in the assay with OVCAR-5; < 0.005 µM (active) in the assay with SK-MEL-5; 0.0075 µM (active) with A498; 0.592 µM (active) in the assay with SN12C; < 0.01 µM (active) with MDA-N. The GI50 was 1.3 µM (inactive) in the assay on A549; 0.593 µM (active) with SF-268; 7.82 µM (inactive) in the assay with MOLT-4; 0.0586 µM (active) in the assay with HL-60; 0.0023 µM (active) in the assay with MCF7; 0.218 µM (active) in the assay with IGROV-1. For the same compound, the GI50 is 0.447 µM (active) in the assay with OVCAR-8; 0.519 µM (active) in the assay with LOX IMVI; 9.51 µM (inactive) with NCI-H226; 0.051 µM (active) in the assay with CCRF-CEM; 0.571 µM (active) in the assay on RXF 393; 0.279 µM (active) in the assay on U-251. Moreover, the GI50 with Hs-578T is 0.0127 µM (active); in the assay with NCI-H23 it was 0.005 µM (active).

For `O=C1C(NCCc2cc(Br)c(O)c(Br)c2)=CC(=O)c2ncccc21`, the GI50 in the assay with UACC-257 is 2.88 µM (inactive); in the assay with OVCAR-5, 6.52 µM (inactive); in the assay with SK-MEL-5, 1.47 µM (inactive); with A498, 4.08 µM (inactive); with SN12C, 3.8 µM (inactive); in the assay with MDA-N, 1.82 µM (inactive). Further, the GI50 was 3.52 µM (inactive) in the assay on A549; 8.32 µM (inactive) in the assay with SF-268; 6.71 µM (inactive) in the assay on MOLT-4; 2.32 µM (inactive) in the assay on HL-60; 4.09 µM (inactive) with MCF7; 4.15 µM (inactive) in the assay with IGROV-1. In addition, the GI50 is 3.85 µM (inactive) in the assay with OVCAR-8; 1.78 µM (inactive) in the assay with LOX IMVI; 2.29 µM (inactive) with NCI-H226; 3.39 µM (inactive) in the assay on CCRF-CEM; 7.93 µM (inactive) in the assay with RXF 393; 5.55 µM (inactive) in the assay with U-251. In addition, the GI50 in the assay with Hs-578T was 3.1 µM (inactive); in the assay on NCI-H23, 0.659 µM (active).

With `Cc1ccc2nc(N/N=C/c3sccc3C)cc(C)c2c1`, the GI50 was > 100 µM (inactive) in the assay on UACC-257; > 100 µM (inactive) in the assay on OVCAR-5; 28.8 µM (inactive) in the assay on SK-MEL-5; > 100 µM (inactive) in the assay with A498; > 100 µM (inactive) in the assay on SN12C; > 100 µM (inactive) in the assay on MDA-N. Besides, the GI50 in the assay with A549 was 83.9 µM (inactive); with SF-268, > 100 µM (inactive); with MOLT-4, > 100 µM (inactive); in the assay with HL-60 it was 28.4 µM (inactive); in the assay on MCF7 it was 25.3 µM (inactive); in the assay with IGROV-1, 37.2 µM (inactive). The GI50 in the assay with OVCAR-8 was > 100 µM (inactive); with LOX IMVI, > 100 µM (inactive); in the assay with NCI-H226, > 100 µM (inactive); in the assay on CCRF-CEM it was > 100 µM (inactive); in the assay with RXF 393, 61.8 µM (inactive); with U-251 it was 92.7 µM (inactive). Moreover, the figures for the GI50 with Hs-578T and in the assay with NCI-H23 were 83.2 µM (inactive) and > 100 µM (inactive), respectively.

Consider `O=C1CC(CC(=O)c2ccc(Br)cc2)C(O)=C1C(=O)c1ccc(Br)cc1` (stereo not drawn), for which the GI50 in the assay with UACC-257 was > 100 µM (inactive); with OVCAR-5, > 100 µM (inactive); in the assay on SK-MEL-5 it was > 100 µM (inactive); with A498, 77.1 µM (inactive); in the assay on SN12C, > 100 µM (inactive); in the assay on MDA-N, > 100 µM (inactive). In addition, the GI50 in the assay with A549 is > 100 µM (inactive); with SF-268 it was 87.1 µM (inactive); with MOLT-4, 41.7 µM (inactive); in the assay with HL-60 it was > 100 µM (inactive); with MCF7, > 100 µM (inactive); with IGROV-1, > 100 µM (inactive). Further, the GI50 in the assay with OVCAR-8 was 99.8 µM (inactive); with LOX IMVI it was 79.1 µM (inactive); in the assay with NCI-H226, > 100 µM (inactive); in the assay with CCRF-CEM, 53.2 µM (inactive); in the assay on RXF 393, > 100 µM (inactive); with U-251, 45.4 µM (inactive). Further, the GI50 with Hs-578T is 50 µM (inactive); with NCI-H23, 87.7 µM (inactive).

Turning to `CCn1c(CCCc2nc3c(=O)n(C)c(=O)n(C)c3[nH]2)nc2c1c(=O)n(C)c(=O)n2C`, the GI50 in the assay on UACC-257 is > 100 µM (inactive); with OVCAR-5, > 100 µM (inactive); with SK-MEL-5 it was 14 µM (inactive); in the assay with A498, > 100 µM (inactive); in the assay with SN12C, 46 µM (inactive); with MDA-N it was > 100 µM (inactive). Also, the GI50 in the assay on A549 was > 100 µM (inactive); in the assay with SF-268, > 100 µM (inactive); with MOLT-4, > 100 µM (inactive); with HL-60, 77.8 µM (inactive); in the assay with MCF7 it was > 100 µM (inactive); in the assay on IGROV-1, > 100 µM (inactive). The GI50 in the assay on OVCAR-8 was > 100 µM (inactive); in the assay on LOX IMVI, > 100 µM (inactive); with NCI-H226, 14.8 µM (inactive); with CCRF-CEM, > 100 µM (inactive); with RXF 393 it was > 100 µM (inactive); in the assay with U-251, > 100 µM (inactive). The GI50 in the assay on Hs-578T and in the assay with NCI-H23 was > 100 µM (inactive) each time.

For `N/N=C1\CCCc2c1no[n+]2[O-]`, the GI50 in the assay on UACC-257, in the assay with OVCAR-5, with SK-MEL-5, with A498, with SN12C and in the assay with MDA-N was > 100 µM (inactive) in each case. In addition, the GI50 in the assay with A549, with SF-268, with MOLT-4, with HL-60, in the assay with MCF7 and in the assay with IGROV-1 was > 100 µM (inactive) throughout. In addition, the GI50 in the assay on OVCAR-8, with LOX IMVI, with NCI-H226, in the assay on CCRF-CEM, in the assay on RXF 393 and with U-251 was > 100 µM (inactive) each time. Also, the GI50 in the assay on Hs-578T and in the assay on NCI-H23 was > 100 µM (inactive) each time.

For the compound `Cn1cccc1-c1ccc(-c2ccc(CO)[se]2)[se]1`, the GI50 in the assay on OVCAR-5 is 53.5 µM (inactive); in the assay with SK-MEL-5, 11.4 µM (inactive); in the assay with A498 it was 1.77 µM (inactive); with SN12C, 68.9 µM (inactive); in the assay on MDA-N, 8.53 µM (inactive); in the assay with A549, 15.2 µM (inactive). The GI50 in the assay on SF-268 is 44.7 µM (inactive); in the assay on MOLT-4 it was 8.79 µM (inactive); in the assay with HL-60, 7.35 µM (inactive); in the assay on MCF7 it was 0.906 µM (active); in the assay with IGROV-1, 0.582 µM (active); in the assay with OVCAR-8, 27.7 µM (inactive). For the same compound, the GI50 in the assay with LOX IMVI is 19.1 µM (inactive); in the assay on NCI-H226, 0.307 µM (active); in the assay on CCRF-CEM, 11.5 µM (inactive); in the assay with RXF 393, 5.66 µM (inactive); in the assay on U-251, 9.53 µM (inactive); in the assay on Hs-578T, 22.7 µM (inactive). In the assay with NCI-H23, the GI50 is 25.9 µM (inactive).

As for `COc1nc2ncc([C@@H](O)[C@H](O)CO)nc2c(=O)n1C`, the GI50 in the assay with UACC-257, in the assay on OVCAR-5, in the assay with SK-MEL-5, in the assay on A498, in the assay on SN12C and with MDA-N was > 100 µM (inactive) throughout. Besides, the GI50 with A549, in the assay with SF-268, with MOLT-4, in the assay on HL-60, with MCF7 and in the assay on IGROV-1 was > 100 µM (inactive) throughout. Also, the GI50 with OVCAR-8, in the assay with LOX IMVI, in the assay on NCI-H226, in the assay with CCRF-CEM, in the assay on RXF 393 and in the assay with U-251 was > 100 µM (inactive) throughout. Further, the GI50 in the assay on Hs-578T is > 100 µM (inactive).
